Data published in PubChem BioAssay (NCI).
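These data come from cells grown in 96-well plates and exposed to compound for 48 hours at five concentrations. TGI marks complete inhibition of growth.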

Legend:
Experiment in all cases: NCI anticancer screen, dose series, 48 h
SW-620 colon = test system: SW-620 colon
CCRF-CEM leukemia = test system: CCRF-CEM leukemia
RXF 393 renal = test system: RXF 393 renal
SK-OV-3 ovarian = test system: SK-OV-3 ovarian
OVCAR-3 ovarian = test system: OVCAR-3 ovarian
IGROV1 ovarian = test system: IGROV1 ovarian
786-0 renal = test system: 786-0 renal
DU-145 prostate = test system: DU-145 prostate
MCF7 breast = test system: MCF7 breast
UACC-62 melanoma = test system: UACC-62 melanoma
OVCAR-5 ovarian = test system: OVCAR-5 ovarian
UO-31 renal = test system: UO-31 renal
SK-MEL-5 melanoma = test system: SK-MEL-5 melanoma
MDA-MB-231 breast = test system: MDA-MB-231 breast
KM12 colon = test system: KM12 colon
PC-3 prostate = test system: PC-3 prostate
U251 CNS = test system: U251 CNS
BT-549 breast = test system: BT-549 breast
HCC-2998 colon = test system: HCC-2998 colon
MDA-N = test system: MDA-N
SNB-19 CNS = test system: SNB-19 CNS
TK-10 renal = test system: TK-10 renal
SF-268 CNS = test system: SF-268 CNS
T-47D breast = test system: T-47D breast
K-562 leukemia = test system: K-562 leukemia
HS 578T breast = test system: HS 578T breast
OVCAR-4 ovarian = test system: OVCAR-4 ovarian
ACHN renal = test system: ACHN renal
UACC-257 melanoma = test system: UACC-257 melanoma
SK-MEL-2 melanoma = test system: SK-MEL-2 melanoma
M14 melanoma = test system: M14 melanoma
HOP-62 NSCLC = test system: HOP-62 NSCLC
NCI-H460 lung = test system: NCI-H460 lung
CAKI-1 renal = test system: CAKI-1 renal
EKVX NSCLC = test system: EKVX NSCLC
HCT-15 colon = test system: HCT-15 colon
COLO 205 colon = test system: COLO 205 colon
MOLT-4 leukemia = test system: MOLT-4 leukemia
RPMI-8226 leukemia = test system: RPMI-8226 leukemia
LOX IMVI melanoma = test system: LOX IMVI melanoma
MALME-3M melanoma = test system: MALME-3M melanoma
NCI-H522 lung = test system: NCI-H522 lung
SN12C renal = test system: SN12C renal
NCI-H23 lung = test system: NCI-H23 lung
NCI/ADR-RES ovarian = test system: NCI/ADR-RES ovarian
SF-295 CNS = test system: SF-295 CNS
OVCAR-8 ovarian = test system: OVCAR-8 ovarian
HL-60(TB) leukemia = test system: HL-60(TB) leukemia
A549 NSCLC = test system: A549 NSCLC
A498 renal = test system: A498 renal
HOP-92 NSCLC = test system: HOP-92 NSCLC
SNB-75 CNS = test system: SNB-75 CNS
NCI-H226 lung = test system: NCI-H226 lung
HT29 colon = test system: HT29 colon
HCT-116 colon = test system: HCT-116 colon
SF-539 CNS = test system: SF-539 CNS
MDA-MB-435 = test system: MDA-MB-435
SK-MEL-28 melanoma = test system: SK-MEL-28 melanoma
SR leukemia = test system: SR leukemia

Brc1ccc(-c2[nH]c3ccccc3c2/C=N\Nc2ccc(-c3nc4ccccc4[nH]3)cc2)cc1
TGI (SW-620 colon): > 49.5 µM | TGI (CCRF-CEM leukemia): > 68.6 µM | TGI (RXF 393 renal): > 43.6 µM | TGI (SK-OV-3 ovarian): > 100 µM | TGI (OVCAR-3 ovarian): > 100 µM | TGI (IGROV1 ovarian): > 88.3 µM | TGI (786-0 renal): > 42 µM | TGI (DU-145 prostate): > 31.8 µM | TGI (MCF7 breast): > 100 µM | TGI (UACC-62 melanoma): > 100 µM | TGI (OVCAR-5 ovarian): > 67.1 µM | TGI (UO-31 renal): > 100 µM | TGI (SK-MEL-5 melanoma): 1.41 µM | TGI (MDA-MB-231 breast): 0.559 µM | TGI (KM12 colon): > 100 µM | TGI (PC-3 prostate): > 100 µM | TGI (U251 CNS): > 42.1 µM | TGI (BT-549 breast): > 100 µM | TGI (HCC-2998 colon): < 0.01 µM | TGI (MDA-N): < 0.01 µM | TGI (SNB-19 CNS): > 100 µM | TGI (TK-10 renal): > 100 µM | TGI (SF-268 CNS): 6.28 µM | TGI (T-47D breast): > 100 µM | TGI (K-562 leukemia): > 39.2 µM | TGI (HS 578T breast): < 0.01 µM | TGI (OVCAR-4 ovarian): > 100 µM | TGI (ACHN renal): 17.3 µM | TGI (UACC-257 melanoma): > 100 µM | TGI (SK-MEL-2 melanoma): > 35.4 µM | TGI (M14 melanoma): > 100 µM | TGI (HOP-62 NSCLC): > 68.5 µM | TGI (NCI-H460 lung): > 51.6 µM | TGI (CAKI-1 renal): > 100 µM | TGI (EKVX NSCLC): > 52.2 µM | TGI (HCT-15 colon): > 37 µM | TGI (COLO 205 colon): 0.0834 µM | TGI (MOLT-4 leukemia): 22.1 µM | TGI (RPMI-8226 leukemia): 25.4 µM | TGI (LOX IMVI melanoma): > 100 µM | TGI (MALME-3M melanoma): 24 µM | TGI (NCI-H522 lung): < 0.01 µM | TGI (SN12C renal): > 100 µM | TGI (NCI-H23 lung): > 46.6 µM | TGI (NCI/ADR-RES ovarian): > 100 µM | TGI (SF-295 CNS): > 100 µM | TGI (OVCAR-8 ovarian): > 58.5 µM | TGI (HL-60(TB) leukemia): > 100 µM | TGI (A549 NSCLC): > 100 µM

COc1cc(OCCN(C)C)c2[nH]c(C(=O)N3CC(CCl)c4c3cc(N)c3ccccc43)cc2c1 (stereo unspecified)
TGI (A498 renal): < 0.01 µM | TGI (SW-620 colon): 0.265 µM | TGI (CCRF-CEM leukemia): > 100 µM | TGI (RXF 393 renal): < 0.01 µM | TGI (SK-OV-3 ovarian): 1.32 µM | TGI (OVCAR-3 ovarian): < 0.01 µM | TGI (786-0 renal): < 0.01 µM | TGI (DU-145 prostate): 1.08 µM | TGI (MCF7 breast): 0.011 µM | TGI (UACC-62 melanoma): < 0.01 µM | TGI (OVCAR-5 ovarian): 0.213 µM | TGI (MDA-MB-231 breast): 1.17 µM | TGI (PC-3 prostate): 0.736 µM | TGI (BT-549 breast): 0.379 µM | TGI (HCC-2998 colon): < 0.01 µM | TGI (MDA-N): < 0.01 µM | TGI (HOP-92 NSCLC): < 0.01 µM | TGI (T-47D breast): 1.79 µM | TGI (SK-MEL-2 melanoma): < 0.01 µM | TGI (M14 melanoma): < 0.01 µM | TGI (HOP-62 NSCLC): < 0.01 µM | TGI (EKVX NSCLC): 0.0521 µM | TGI (HCT-15 colon): 1.32 µM | TGI (COLO 205 colon): 0.0102 µM | TGI (LOX IMVI melanoma): < 0.01 µM | TGI (SNB-75 CNS): 0.02 µM | TGI (NCI-H522 lung): < 0.01 µM | TGI (NCI-H23 lung): < 0.01 µM | TGI (NCI/ADR-RES ovarian): 0.0498 µM | TGI (SF-295 CNS): 0.017 µM | TGI (NCI-H226 lung): 0.0311 µM

CN(CCNC(=O)c1cn(C)c2c1ccc1ccccc12)CCNC(=O)c1cn(C)c2c1ccc1ccccc12
TGI (A498 renal): > 34.5 µM | TGI (SW-620 colon): > 100 µM | TGI (CCRF-CEM leukemia): > 100 µM | TGI (SK-OV-3 ovarian): 22.3 µM | TGI (OVCAR-3 ovarian): 11.4 µM | TGI (IGROV1 ovarian): 4.65 µM | TGI (UACC-62 melanoma): 12.7 µM | TGI (OVCAR-5 ovarian): 3.52 µM | TGI (UO-31 renal): 4.68 µM | TGI (SK-MEL-5 melanoma): > 100 µM | TGI (MDA-MB-231 breast): 3.8 µM | TGI (KM12 colon): 2.98 µM | TGI (PC-3 prostate): 7.02 µM | TGI (U251 CNS): 4.58 µM | TGI (BT-549 breast): 6.87 µM | TGI (HCC-2998 colon): 1.49 µM | TGI (MDA-N): 4.25 µM | TGI (SNB-19 CNS): > 100 µM | TGI (HOP-92 NSCLC): 5.26 µM | TGI (HT29 colon): > 100 µM | TGI (SF-268 CNS): > 21.3 µM | TGI (HS 578T breast): 3.11 µM | TGI (OVCAR-4 ovarian): 16.2 µM | TGI (ACHN renal): > 100 µM | TGI (UACC-257 melanoma): 6.62 µM | TGI (SK-MEL-2 melanoma): 4.6 µM | TGI (M14 melanoma): 2.97 µM | TGI (HOP-62 NSCLC): 5.53 µM | TGI (NCI-H460 lung): 3.72 µM | TGI (CAKI-1 renal): > 100 µM | TGI (EKVX NSCLC): 6.93 µM | TGI (LOX IMVI melanoma): > 100 µM | TGI (MALME-3M melanoma): 5.13 µM | TGI (SN12C renal): 10.6 µM | TGI (NCI-H23 lung): > 100 µM | TGI (NCI/ADR-RES ovarian): > 100 µM | TGI (SF-295 CNS): > 22.2 µM | TGI (OVCAR-8 ovarian): > 100 µM | TGI (A549 NSCLC): 11.1 µM | TGI (NCI-H226 lung): > 75.1 µM

Cc1cccc(N=Nc2c(C)nn(C(=O)CC(=O)Nc3ccc(Cl)cc3)c2C)c1
TGI (A498 renal): > 100 µM | TGI (SW-620 colon): > 100 µM | TGI (CCRF-CEM leukemia): 98.6 µM | TGI (RXF 393 renal): > 100 µM | TGI (SK-OV-3 ovarian): > 100 µM | TGI (OVCAR-3 ovarian): > 100 µM | TGI (786-0 renal): > 100 µM | TGI (DU-145 prostate): > 100 µM | TGI (MCF7 breast): > 100 µM | TGI (UACC-62 melanoma): > 100 µM | TGI (OVCAR-5 ovarian): > 100 µM | TGI (UO-31 renal): > 100 µM | TGI (SK-MEL-5 melanoma): > 100 µM | TGI (MDA-MB-231 breast): > 100 µM | TGI (KM12 colon): > 100 µM | TGI (PC-3 prostate): > 100 µM | TGI (HCT-116 colon): > 100 µM | TGI (U251 CNS): > 100 µM | TGI (BT-549 breast): > 100 µM | TGI (SF-539 CNS): > 100 µM | TGI (HCC-2998 colon): > 100 µM | TGI (MDA-N): > 100 µM | TGI (SNB-19 CNS): > 100 µM | TGI (HOP-92 NSCLC): 79.6 µM | TGI (HT29 colon): > 100 µM | TGI (TK-10 renal): > 100 µM | TGI (MDA-MB-435): > 100 µM | TGI (SF-268 CNS): > 100 µM | TGI (T-47D breast): > 100 µM | TGI (HS 578T breast): > 100 µM | TGI (OVCAR-4 ovarian): > 100 µM | TGI (ACHN renal): > 100 µM | TGI (UACC-257 melanoma): > 100 µM | TGI (SK-MEL-2 melanoma): > 100 µM | TGI (M14 melanoma): > 100 µM | TGI (HOP-62 NSCLC): > 100 µM | TGI (NCI-H460 lung): > 100 µM | TGI (CAKI-1 renal): > 100 µM | TGI (EKVX NSCLC): 96.9 µM | TGI (SK-MEL-28 melanoma): > 100 µM | TGI (HCT-15 colon): > 100 µM | TGI (COLO 205 colon): > 100 µM | TGI (MOLT-4 leukemia): > 100 µM | TGI (RPMI-8226 leukemia): > 100 µM | TGI (LOX IMVI melanoma): > 100 µM | TGI (SR leukemia): 41.8 µM | TGI (SNB-75 CNS): 95.9 µM | TGI (NCI-H522 lung): > 100 µM | TGI (SN12C renal): > 100 µM | TGI (NCI-H23 lung): > 100 µM | TGI (NCI/ADR-RES ovarian): > 100 µM | TGI (SF-295 CNS): > 100 µM | TGI (OVCAR-8 ovarian): > 100 µM | TGI (HL-60(TB) leukemia): > 100 µM | TGI (A549 NSCLC): > 100 µM | TGI (NCI-H226 lung): > 100 µM
